{
  "source": "patent US20040024033A1",
  "about": "(priority 1998, published 2004)",
  "key": {"[1]": {"assay": "Determination of the single i.v. dose MTD in normal mice", "assay_type": "in vivo, normal female BALB/c mice", "details": "for Body Weight Δ: mean ± SD", "method": "(§1) For the MTD determination, female BALB/c nude mice or BALB/c mice (obtained from Novartis Animal Farm, Sisseln, Switzerland) are treated once intravenously with epothilone B (n=3 per dose group). The dosage is increased (2, 4, 6, 8, 10 and 12 mg/kg) and the mice are observed for the presentation of overt toxic effects for 10 days after drug treatment.\nEpothilone B is given as a single i.v. bolus dose at 2, 4, 6, 8, 10 or 12 mg/kg. Survival and body weights of the mice are monitored daily. Changes (Δ) in body weights are determined comparing the last measured body weight to that before treatment."}, "[2]": {"assay": "Determination of the single i.v. dose MTD in nude mice", "assay_type": "in vivo, female BALB/c nude mice", "details": "mean ± SD", "method": "as §1\nEpothilone B is given as a single i.v. bolus dose at 2, 4, 6, 8, 10 or 12 mg/kg. Survival and body weights of the mice are monitored daily. Changes (A) in body weights are determined comparing the last measured body weight to that before treatment."}, "[3]": {"system": "human PC-3M prostate carcinoma cells", "assay": "Antitumor effect against orthotopically injected PC-3M cells", "assay_type": "in vivo, male BALB/c nude mice", "method": "Human prostate carcinoma PC-3M cells (1×10^6 cells per 20 μl phosphate buffered saline) are injected into the left […] of the prostate of each animal (n=6-9/group) according the method previously described (see Stephenson et al., J. Natl. Cancer Inst. 84, 951-7 (1992)). Treatment is started on day 14 after cell injection. At this time point a mean tumor weight of ˜20 mg is established. Epothilone B is administered either once or once weekly. Mice are sacrificed 42 days post tumor inoculation, and the prostates are carefully removed, dissected free of adhering tissue and weighed. […] Mesenteric lymph nodes are examined for the presence of metastases, dissected free of adhering tissue and weighed.\nTumor weight and body weights are monitored once or twice weekly. All treatments are administered intravenously (i.v.) and are initiated 14 days post cell injection. Treatment with epothilone B varies the dose and frequency of administration. Antitumor activity is expressed as T/C% (mean tumor weight of treated animals divided by the mean tumor weight of control animals multiplied by 100).\n1×10^6 PC-3M cells in 20 μL of PBS are injected into the […] of the prostate of each male nude mouse (n=9 per group). Treatments are started on day 14 after tumor cell injection. epothilone B is administered i.v., once at 6 or 8 mg/kg, or once per week at 4 or 5 mg/kg. Antitumor activity is expressed as T/C% (mean tumor weight of treated animals divided by the mean of tumor weight of control animals multiplied by 100). Differences in body weights consider only animals surviving to the end of the experiment (day 42). Statistical analyses on A body weight uses paired t-tests comparing body weights before treatment to the end of treatment; mice weigh˜20-25 g at the start of treatment. Not significant is indicated by the abbreviation ,ns”."}, "[4]": {"system": "human COLO 205 colon tumors", "assay_type": "in vivo, female BALB/c nude mice", "details": "4 mg/kg, day 32", "method": "Female or male BALB/c nu/nu (nude) mice are kept under sterile conditions (10 to 12 mice per Type III cage) with free access to food and water. Mice weigh between 20 and 25 grams at the time of tumor implantation. Tumors are established by subcutaneous injection of cells (minimum 2×10^6 cells in 100 μl PBS or medium) in carrier mice (4-8 mice per cell line). The resulting tumors are serially passaged for a minimum of three consecutive transplantations prior to start of treatment. Tumor fragments (approx. 25 mg) are implanted s.c. into the left flank of animals with a 13-gauge trocar needle while the mice are exposed to Forene (Abbott, Switzerland) anesthesia.\nTumor growth and body weights are monitored once or twice weekly. All treatments are administered intravenously (i.v.) and are initiated when a mean tumor volume of approximately 100 to 250 mm^3 is attained, depending upon the tumor type. Tumor volumes are determined using the formula […] (see Cancer Chemother. Pharmacol. 24:148-154, [1989]). Treatments with epothilone B vary the dose and the frequency of administration. Comparator agents are administered according to previously determined optimal treatment regimens. In addition to presenting changes in tumor volumes over the course of treatment, antitumor activity is expressed as T/C% (mean increase of tumor volumes of treated animals divided by the mean increase of tumor volumes of control animals multiplied by 100). Tumor regression (%) represents the smallest mean tumor volume compared to the mean tumor volume at the start of treatment, according to the formula Regression (%)=(1−Vend/Vstart)×100 (Vend=final mean tumor volume, Vstart=mean tumor volume at the start of treatment. Any animals in which the tumor has reached a size exceeding approximately 1.5 to 2.5 cm^3 are sacrificed. Details can be found below.\nTumor fragments of approximately 25 mg are implanted into the left flank of each female nude mouse (n=7 per group); a subcutaneous estrogen pellet is placed on the opposite flank. Treatments are started on day 14 after tumor transplantation. epothilone B is administered at 4 mg/kg, i.v., either once or once per week (days 14, 21, 28) or every second week (days 14 and 28). 5-fluorouracil is administered i.v. at 75 mg/kg on days 14, 21, 28. Data presented are from animals surviving to day 32, four days after the last treatments. Antitumor activity is expressed as T/C% (mean increase of tumor volumes of treated animals divided by the mean increase of tumor volumes of control animals multiplied by 100). Tumor regression (%) represents the final mean tumor volume compared to the mean tumor volume at the start of treatment. Changes (A) in tumor volumes represent the tumor volume on the last treatment day minus the tumor volume on the first treatment day."}, "[5]": {"assay": "GLP toxicology study in dogs", "assay_type": "in vivo", "details": "dog", "method": "The starting dose level is 0.3 mg/m^2. This dose is calculated as one-third of the toxic dose low (TDL) in the most sensitive species studied which, for epothilone B, is the dog. […] Using a factor of 20 to convert mg/kg in the dog to mg/m^2 in humans, this starting dose is calculated as: […]"}, "[6]": {"details": "Experiment 1, 6 mg/kg single i.v. bolus"}, "[7]": {"details": "Experiment 1, 8 mg/kg single i.v. bolus"}, "[8]": {"details": "Experiment 1, 10 mg/kg single i.v. bolus"}, "[9]": {"details": "Experiment 1, 12 mg/kg single i.v. bolus"}, "[10]": {"details": "Experiment 2, 2 mg/kg single i.v. bolus"}, "[11]": {"details": "Experiment 2, 4 mg/kg single i.v. bolus"}, "[12]": {"details": "Experiment 2, 6 mg/kg single i.v. bolus"}, "[13]": {"details": "Experiment 2, 8 mg/kg single i.v. bolus"}},
  "note": "Read-outs that look alike come from different tables or passages of the source.",
  "data": [
    {"smiles": "C/C(=C\\c1csc(C)n1)[C@@H]1C[C@@H]2O[C@]2(C)CCC[C@H](C)[C@H](O)[C@@H](C)C(=O)C(C)(C)[C@@H](O)CC(=O)O1", "note": "[epothilone B]", "values": [
      {"measurement": "Mortalities", "setting": "[1]; [6]", "value": "1/3"},
      {"measurement": "Body Weight Δ", "setting": "[1]; [6]", "value": "-6.1 ± 0.9", "unit": "g"},
      {"measurement": "Mortalities", "setting": "[1]; [7]", "value": "3/3"},
      {"measurement": "Body Weight Δ", "setting": "[1]; [7]", "value": "-5.1 ± 3.2", "unit": "g"},
      {"measurement": "Mortalities", "setting": "[1]; [8]", "value": "3/3"},
      {"measurement": "Body Weight Δ", "setting": "[1]; [8]", "value": "-5.6 ± 0.6", "unit": "g"},
      {"measurement": "Mortalities", "setting": "[1]; [9]", "value": "3/3"},
      {"measurement": "Body Weight Δ", "setting": "[1]; [9]", "value": "-5.4 ± 2.9", "unit": "g"},
      {"measurement": "Mortalities", "setting": "[1]; [10]", "value": "0/3"},
      {"measurement": "Body Weight Δ", "setting": "[1]; [10]", "value": "2.3 ± 0.6", "unit": "g"},
      {"measurement": "Mortalities", "setting": "[1]; [11]", "value": "0/3"},
      {"measurement": "Body Weight Δ", "setting": "[1]; [11]", "value": "1.3 ± 0.6", "unit": "g"},
      {"measurement": "Mortalities", "setting": "[1]; [12]", "value": "2/3"},
      {"measurement": "Body Weight Δ", "setting": "[1]; [12]", "value": "-5.3 ± 0.6", "unit": "g"},
      {"measurement": "Mortalities", "setting": "[1]; [13]", "value": "3/3"},
      {"measurement": "Body Weight Δ", "setting": "[1]; [13]", "value": "-5.0 ± 1.0", "unit": "g"},
      {"measurement": "Body Weight Δ", "setting": "[2]; 2 mg/kg single i.v. bolus", "value": "1.0 ± 0.5", "unit": "g"},
      {"measurement": "Body Weight Δ", "setting": "[2]; 4 mg/kg single i.v. bolus", "value": "-0.4 ± 0.6", "unit": "g"},
      {"measurement": "Body Weight Δ", "setting": "[2]; 6 mg/kg single i.v. bolus", "value": "-1.0 ± 0.5", "unit": "g"},
      {"measurement": "Body Weight Δ", "setting": "[2]; 8 mg/kg single i.v. bolus", "value": "-3.8 ± 2.7", "unit": "g"},
      {"measurement": "Body Weight Δ", "setting": "[2]; 10 mg/kg single i.v. bolus", "value": "-5.6 ± 3.3", "unit": "g"},
      {"measurement": "Body Weight Δ", "setting": "[2]; 12 mg/kg single i.v. bolus", "value": "-5.1 ± 0.6", "unit": "g"},
      {"measurement": "Δ Body Weight", "setting": "[3]; 4 mg/kg, i.v. once per week", "value": -1.2, "unit": "g"},
      {"measurement": "Δ Body Weight", "setting": "[3]; 5 mg/kg, i.v. once per week", "value": -6.8, "unit": "g"},
      {"measurement": "Δ Body Weight", "setting": "[3]; 6 mg/kg, i.v. once", "value": -1.4, "unit": "g"},
      {"measurement": "Δ Body Weight", "setting": "[3]; 8 mg/kg, i.v. once", "value": -5.2, "unit": "g"},
      {"measurement": "T/C", "setting": "[4]; i.v. every 7 days", "value": "Regres-"},
      {"measurement": "T/C", "setting": "[4]; i.v. every 14 days", "value": "Regres-"},
      {"measurement": "T/C", "setting": "[4]; i.v. once", "value": "Regres-"},
      {"measurement": "toxic dose low (TDL)", "setting": "[5]; most sensitive species, estimated", "value": "~0.5", "unit": "mg/kg"},
      {"measurement": "Mortalities", "setting": "[5]; 0.1 mg/kg, repeated once 3 weeks later (lower of the 2 doses)", "value": "no mortalities"}
    ]}
  ]
}
